Consider 27 compounds from US8455500B2, “3-hydroxy-5-arylisoxazole derivative” (Mochida Pharmaceutical Co., Ltd., priority 2009, dated 2013).

Molecules are shown by their SMILES.

One may read the EC50 as the concentration needed to bring the measured effect to its halfway point.

T1 sequence (O14842 whole entry): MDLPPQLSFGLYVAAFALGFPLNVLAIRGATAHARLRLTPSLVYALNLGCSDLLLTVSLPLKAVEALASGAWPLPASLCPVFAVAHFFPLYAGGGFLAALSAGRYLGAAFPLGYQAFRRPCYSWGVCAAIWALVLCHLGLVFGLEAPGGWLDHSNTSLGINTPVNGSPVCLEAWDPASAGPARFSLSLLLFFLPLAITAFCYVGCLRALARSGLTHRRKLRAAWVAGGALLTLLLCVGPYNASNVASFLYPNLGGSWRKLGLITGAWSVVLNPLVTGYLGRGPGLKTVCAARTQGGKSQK

The test concerns the target T1, GPR40 of human origin (Homo sapiens, UniProt O14842).
T1 construct: expressed in transfected cells
In words: Agonist action on GPR40 of human origin (Ca2+ fluorescence in a CHO cell strain stably expressing GPR40). In kind it is cell-based. The conditions noted are these: Ca2+ concentration fluctuation, fluorescence intensity. As to the method: A CHO cell strain stably expressing GPR40 of human origin was used to determine the agonist action of a subject compound. This cell strain was seeded in a clear bottom 96 well plate at 4×10^4 cells/100 μL/well. The cell strain was cultured in a CO2 incubator overnight using a Ham's F-12 medium containing a 10% fetal bovine serum, 100 U/mL penicillin, 0.1 mg/mL streptomycin, and 400 μg/mL Geneticin. Calcium 4 Assay Kit (Molecular Devices) was used as a fluorescent calcium indicator. One mL of 77 mg/mL probenecid (Invitrogen) was added to 100 mL of a calcium indicator solution to prepare a solution (loading solution) mixed with a 20 mM HEPES-containing Hanks' balanced salt solution (HBSS) in equal proportions. 200 μL of the loading solution was added to the cells from which the culture solution was removed, and the cells were cultured in a CO2 incubator for 1 hour. The subject compound was diluted with a 20 mM HEPES-containing HBSS and was added to the cells by 50 μL, and the fluctuation of the Ca^2+ concentration was measured by an intracellular ion analyzer. The EC50 value of the subject compound was calculated using the dose-response curve of fluorescence intensity variation.
`Oc1cc(-c2ccc(OC3Cc4ccccc4C3)cc2)on1` [Example 2, 5-(4-(2,3-dihydro-1H-inden-2-yloxy)phenyl)isoxazol-3-ol] gave an EC50 of less than 300 nM.
Consider `Oc1cc(-c2ccc(OC3CCc4c(Cl)cccc43)cc2)on1` (stereo not drawn) [Example 11, 5-(4-(4-chloro-2,3-dihydro-1H-inden-1-yloxy)phenyl)isoxazol-3-ol], for which the EC50 was less than 300 nM.
`N#Cc1cccc2c1CCC2Oc1ccc(-c2cc(O)no2)cc1` (stereo not drawn) [Example 12, 5-(4-(4-cyano-2,3-dihydro-1H-inden-1-yloxy)phenyl)isoxazol-3-ol] registered an EC50 of 300 to 3000 nM.
In the case of `Oc1cc(-c2ccc(OC3CCc4cc(Cl)ccc43)cc2)on1` (stereo not drawn) [Example 13, 5-(4-(5-chloro-2,3-dihydro-1H-inden-1-yloxy)phenyl)isoxazol-3-ol] it was 300 to 3000 nM; in that of `Oc1cc(-c2ccc(OC3CCc4cc(Br)ccc43)cc2)on1` (stereo not drawn) [Example 14, 5-(4-(5-bromo-2,3-dihydro-1H-inden-1-yloxy)phenyl)isoxazol-3-ol], 300 to 3000 nM.
In the case of `Oc1cc(-c2ccc(OC3CCc4c3ccc(Cl)c4Cl)cc2)on1` (stereo not drawn) [Example 19, 5-(4-(4,5-dichloro-2,3-dihydro-1H-inden-1-yloxy)phenyl)isoxazol-3-ol], the EC50 lay within 300 to 3000 nM.
The result for `COc1cccc(-c2cccc3c2CCC3Oc2ccc(-c3cc(O)no3)cc2)c1` (stereo not drawn) [Example 21, 5-(4-(2,3-dihydro-4-(3-methoxyphenyl)-1H-inden-1-yloxy)phenyl)isoxazol-3-ol] reads less than 300 nM.
In the case of `COc1ncccc1-c1cccc2c1CCC2Oc1ccc(-c2cc(O)no2)cc1` (stereo not drawn) [Example 23, 5-(4-(2,3-dihydro-4-(2-methoxypyridin-3-yl)-1H-inden-1-yloxy)phenyl)isoxazol-3-ol], the EC50 is less than 300 nM.
In the case of `Cc1cc(OCCC(C)(C)O)nc(C)c1-c1cccc2c1CCC2Oc1ccc(-c2cc(O)no2)cc1` (stereo not drawn) [Example 24, 5-(4-(4-(6-(3-hydroxy-3-methylbutoxy)-2,4-dimethylpyridin-3-yl)-2,3-dihydro-1H-inden-1-yloxy)phenyl)isoxazol-3-ol], the EC50 is less than 300 nM.
In the case of `Oc1cc(-c2ccc(OC3CCc4c(Oc5ccccc5)cccc43)cc2)on1` (stereo not drawn) [Example 26, 5-(4-(2,3-dihydro-4-phenoxy-1H-inden-1-yloxy)phenyl)isoxazol-3-ol] it was less than 300 nM.
`Oc1cc(-c2ccc(OC3CCc4c(OCc5ccccc5C(F)(F)F)cccc43)cc2)on1` (stereo not drawn) [Example 29, 5-(4-(2,3-dihydro-4-(2-(trifluoromethyl)benzyloxy)-1H-inden-1-yloxy)phenyl)isoxazol-3-ol] registered an EC50 of 300 to 3000 nM.
The compound `Oc1cc(-c2ccc(OC3CCc4c(Cc5ccccc5)cccc43)cc2)on1` (stereo not drawn) [Example 30, 5-(4-(4-benzyl-2,3-dihydro-1H-inden-1-yloxy)phenyl)isoxazol-3-ol] yielded an EC50 of less than 300 nM.
The result for `Oc1cc(-c2ccc(NC3CCc4cc(Cl)ccc43)cc2)on1` (stereo not drawn) [Example 31, 5-(4-(5-chloro-2,3-dihydro-1H-inden-1-ylamino)phenyl)isoxazol-3-ol] reads 300 to 3000 nM; that for `Oc1cc(-c2ccc(OC3CCc4c(-c5ccc6c(c5)OCCO6)cccc43)cc2)on1` (stereo not drawn) [Example 34, 5-(4-(2,3-dihydro-4-(1,4-benzodioxan-6-yl)-1H-inden-1-yloxy)phenyl)isoxazol-3-ol], 300 to 3000 nM.
In the case of `Oc1cc(-c2ccc(OC3CCc4c(-c5ccc6cc[nH]c6c5)cccc43)cc2)on1` (stereo not drawn) [Example 35, 5-(4-(2,3-dihydro-4-(1H-indol-6-yl)-1H-inden-1-yloxy)phenyl)isoxazol-3-ol] it was 300 to 3000 nM; in that of `Cc1cc(OCC[C@@H](C)O)cc(C)c1-c1cccc2c1CCC2Oc1ccc(-c2cc(O)no2)cc1` (stereo partly drawn) [Example 36, 5-[4-[[4-[4-[(3R)-3-hydroxybutoxy]-2,6-dimethylphenyl]-2,3-dihydro-1H-inden-1-yl]oxy]phenyl]-1,2-oxazol-3-ol], less than 300 nM.
On to `Cc1cc(OCCC(C)(C)O)cc(C)c1-c1cccc2c1CCC2Oc1ccc(-c2cc(O)no2)cc1` (stereo not drawn) [Example 37, 5-[4-[[4-[4-(3-hydroxy-3-methylbutoxy)-2,6-dimethylphenyl]-2,3-dihydro-1H-inden-1-yl]oxy]phenyl]-1,2-oxazol-3-ol], for which the concentration for a half-maximal effect (EC50) was less than 300 nM.
The result for `Cc1cc(OCCC(C)(C)O)ncc1-c1cccc(COc2ccc(-c3cc(O)no3)cc2)c1C` [Example 38, 5-(4-((3-(6-(3-hydroxy-3-methylbutoxy)-4-methylpyridin-3-yl)-2-methylphenyl)methoxy)phenyl)isoxazol-3-ol] reads less than 300 nM; that for `Cc1nc(OCCC(C)(C)O)ccc1-c1cccc(COc2ccc(-c3cc(O)no3)cc2)c1C` [Example 39, 5-(4-((3-(6-(3-hydroxy-3-methylbutoxy)-2-methylpyridin-3-yl)-2-methylphenyl)methoxy)phenyl)isoxazol-3-ol], less than 300 nM; that for `Cc1cc(OCCC(C)(C)O)nc(C)c1-c1cccc(COc2ccc(-c3cc(O)no3)cc2)c1C` [Example 40, 5-(4-((3-(2,4-dimethyl-6-(3-hydroxy-3-methylbutoxy)pyridin-3-yl)-2-methylphenyl)methoxy)phenyl)isoxazol-3-ol], less than 300 nM.
In the case of `Cc1cc(OCCC(C)(C)O)nc(C)c1-c1cccc(COc2ccc(-c3cc(O)no3)cc2)c1` [Example 41, 5-(4-((3-(2,4-dimethyl-6-(3-hydroxy-3-methylbutoxy)pyridin-3-yl)phenyl)methoxy)phenyl)isoxazol-3-ol] it was less than 300 nM; in that of `Cc1cc(OCCCS(C)(=O)=O)cc(C)c1-c1cccc(COc2ccc(-c3cc(O)no3)cc2)c1` [Example 42, 5-[4-[[3-[2,6-dimethyl-4-(3-methylsulfonylpropoxy)phenyl]phenyl]methoxy]phenyl]-1,2-oxazol-3-ol], less than 300 nM; in that of `Cc1cc(OCCCN2CCCC2=O)cc(C)c1-c1cccc(COc2ccc(-c3cc(O)no3)cc2)c1` [Example 43, 1-[3-[4-[3-[[4-(3-hydroxy-1,2-oxazol-5-yl)phenoxy]methyl]phenyl]-3,5-dimethylphenoxy]propyl]pyrrolidin-2-one], less than 300 nM.
The result for `Cc1cc(OC[C@H](O)CO)cc(C)c1-c1cccc(COc2ccc(-c3cc(O)no3)cc2)c1C` [Example 44, (2R)-3-[4-[3-[[4-(3-hydroxy-1,2-oxazol-5-yl)phenoxy]methyl]-2-methylphenyl]-3,5-dimethylphenoxy]propane-1,2-diol] reads less than 300 nM; that for `Cc1cc(OCCC(C)(C)O)cc(C)c1-c1cccc(COc2ccc(-c3cc(O)no3)cc2)c1C` [Example 45, 5-[4-[[3-[4-(3-hydroxy-3-methylbutoxy)-2,6-dimethylphenyl]-2-methylphenyl]methoxy]phenyl]-1,2-oxazol-3-ol], less than 300 nM; that for `Cc1c(COc2ccc(-c3cc(O)no3)cc2)cccc1-c1cnc(OCCC(C)(C)O)c(C)c1C` [Example 46, 5-[4-[[3-[6-(3-hydroxy-3-methylbutoxy)-4,5-dimethylpyridin-3-yl]-2-methylphenyl]methoxy]phenyl]-1,2-oxazol-3-ol], less than 300 nM.
In the case of `Cc1cc(-c2cccc(COc3ccc(-c4cc(O)no4)cc3)c2C)c(C)nc1OCCC(C)(C)O` [Example 47, 5-[4-[[3-[6-(3-hydroxy-3-methylbutoxy)-2,5-dimethylpyridin-3-yl]-2-methylphenyl]methoxy]phenyl]-1,2-oxazol-3-ol], the EC50 was less than 300 nM.
